Measurements published in patent US11304956B2, “Use of 7-bromo-5-(O-chlorophenyl)-3-propoxy-1,2-dihydro-3H-1,4-benzodiazepin-2-one for inhibition of neuropathic pain and seizures of different etiology” (priority 2016, dated 2022).

Key:
[1] = tested on: carrageenan rat paw edema; test: Carrageenan rat paw edema; assay type: in vivo, male white rats; settings: 10.0 mg/kg intraperitoneally 40 min before carrageenan
Source text: Given the fact that Compound 1 affects not only the painful, but also the inflammatory phase, we undertook an in-depth study of its anti-inflammatory effect. The most common screening method of anti-inflammatory activity is the model of inflammatory edema of the rat hind paw, induced by the subplantar administration of various phlogogenic agents. Under the conditions of carrageenan administration, a sufficiently pronounced edema reaction is observed, which slowly develops and persists for a long time. The maximum size of edema is observed in 2-4 hours.
The anti-inflammatory properties of the test compounds were studied in the model of carrageenan rat paw edema. Male white rats weighing 150-180 g were used in the experiments. Before the administration of the experimental substances, the volumes of the rats' paws subsequently injected by phlogogen were measured. The test compounds and the reference drug—diclofenac-sodium, were administered intraperitoneally 40 minutes prior the inflammation induction. The control group of the rats received an equivalent amount of physiological solution in the emulsion with Tween-80. Acute aseptic inflammation was induced by a 1% aqueous solution of 0.1 ml)—carrageenan injection under plantar aponeurosis of the hind paw of animals of the experimental and control groups (see Trinus F. P. Nonsteroidal anti-inflammatory drugs/F. P. Trinus, N. A. Mohort, B. M. Klebanov//K., 1975, pp. 204-231., Winter C. A. Carrageenin—induced edema in hind paw of the rat as an assay for antiinflammatory drugs/C. A. Winter, E. A. Risley, G. V. Nuss//Proc. Soc. Exp. Biol. Med.—1962.—Vol. 111.—P. 544-547). The inflammatory reaction significance was evaluated after two and four hours after the phlogogen injection. Registration of edema size was carried out by mechanical measurement of foot volume in dynamics according to Zakharevsky A. S. (see Zaharevskiy A. S. The influence of some indole derivatives on the nervous system. Diss. cand. med. science/Zaharevskiy Aleksandr Stepanovich-Minsk.—1969.—78-80 p.). The edema extent was estimated according to the difference in volume between the swollen paw and the paw before inflammation induction. The anti-inflammatory efficacy of the test compounds was determined as the ability of the test compounds to suppress the inflammatory response in the experimental animals compared to the control animals and expressed as a percentage. The calculation was carried out according to the following formula:
The percentage of inflammation suppression=(ΔVκ−ΔV ? /ΔVκ)·100%,
where: ΔVκ—the average increase in the volume of the swollen paw in the control;
ΔV ? —the average increase in the volume of the swollen paw in animals injected by experimental substances.

formalin test in mice = test: Formalin test (licking time of the injected paw); assay type: in vivo, white male non-linear mice; settings: 10.00 mg/kg intraperitoneally 40 min before formalin
[2] = tested on: pentylenetetrazole-induced convulsions; settings: literature data; interval in brackets; cited from earlier work
MES-induced seizures = settings: literature data; interval in brackets; cited from earlier work
[3] = tested on: thermal tail flick test in rats; test: Model of thermal stimulation (tail-flick); assay type: in vivo; settings: n=10
Source text: The problem was solved by experimental study of the antinociceptive action of the test compound 1 on the model of NP in rats and on the model of pain with the participation of central mechanisms, in particular, thermal tail flick test in rats. Based on the available data on the positive response of constant pain to anticonvulsants in the acute and paroxysmal phase and considering structure 1, we performed an evaluation of the anticonvulsant action of the compound on models of pentamethylenetetrazol-induced convulsions and seizures caused by maximal electroshock (MES). We have taken into account the possible side reaction (ulcerogenic effect) of the compound in experimental animals, expressed in the formation of defects in the mucous membrane of the gastrointestinal tract or in provocation of already existing peptic ulcer relapses. The probability of ulcers formation of medicinal origin is especially high during administration of non-steroidal anti-inflammatory drugs in high doses and in combination with their long-term use in the form of tablets.
A more pronounced effect was after parenteral administration (see Table 2). Control: solvent (twin, distilled water, pH-corrector). Results of the study of Compound 1 and ketorolac analgesic effects on the model of thermal stimulation (tail-flick) as degree of pain sensitivity threshold increase in relation to the initial level (%), n=10, are given in Table 2.

[4] = according to the literature data for ketorolac; cited from earlier work
[5] = tested on: model of neuropathic pain in rats; test: Model of neuropathic pain (sciatic nerve ligation), threshold of pain sensitivity by dolorimeter; assay type: in vivo, male Wistar rats; settings: for Changes in the threshold of pain perception, regarding healthy limb: damaged vs healthy limb before administration (baseline); for Threshold of pain sensitivity, damaged limb / Threshold of pain sensitivity, healthy limb: day 14 after ligation, before administration (baseline), M±m, n=10; for Pain perception threshold changes, regarding pathology before administration of compounds / Threshold of pain sensitivity 2 hours after compounds administration: 2 hours; for Threshold of pain sensitivity 2 hours after compounds administration: damaged limb
Protocol: An evaluation of the antinociceptive action of the test compound (1) on a model of neuropathic pain was carried out on 50 male Wistar rats weighing 270-310 g. The model of neuropathic pain was reproduced by ligation of the sciatic nerve at the level of the upper third of the thigh at the level of the popliteal fossa higher than the site of its trifurcation by N. tibialis, N. peroneus and N. suralis (see Mironov A. N. et al. Guidelines for conducting preclinical studies of drugs. Part one.—Moscow 2012. p. 197-219). The development of the pathological process lasted 14 days. The degree of hyperalgesia was determined using a dolorimeter (Dolorimeter Baseline, USA) by determining the threshold of pain sensitivity (TPS)—the minimum pressure on the lower surface of the rat's foot (g/mm^2), which caused pain in the animal (vocalization and/or withdrawal of the foot). Each animal was given 5 attempts; the threshold value was taken with such a pressure force, which caused a positive response in at least one attempt. The threshold of pain sensitivity was compared on intact and damaged limbs on day 14 after ligation (pathology without treatment), as well as on the injured limb after 2 hours (peak of action) after the drugs administration. The test compound and the reference drug (ketorolac) were administered intragastrally (as gavage) once at doses of 0.5 and 3 mg/kg. Sciatic nerve ligation in animals caused the development of neuropathic pain syndrome, which manifested itself in behavioral reactions of the rat and lowering the threshold of pain sensitivity by an average of 44-48% (see Table 1). The analgesic effect of Compound 1 compared with ketorolac under the conditions of their intragastral administration on the model of neuropathic pain in rats (M±m, n=10, where n is the number of animals in the experiments) is shown in Table 1.

[6] = tested on: pentylenetetrazole-induced convulsions; test: Pentylenetetrazole-induced seizures; assay type: in vivo, non-linear male mice; settings: mice; subcutaneously; dose-effect relationship of the seizure agent
Source text: In many cases, the presence of anticonvulsant (antiepileptic) effect of the compounds correlates with analgesic properties on corresponding models of neuralgia. As a general step is a primary screening of new anticonvulsant compounds on rodents with the help of pentylenetetrazole test and MES (maximal electroshock seizures) as they have a qualitative difference in development and manifestations of seizures. It is believed that the compound ability to prevent the MES-induced seizures is connected with impulse spread inhibition throughout the central nervous system. It is believed that the ability to prevent the MES-induced seizures development indicates the potential efficacy of the compound in the preventing propagation of a pulse along the neural tissue (see Tompson E. Medicines. Bioscreening/Under the editorship of A. V. Stefanova.-K.: Avitsenna, 1998.—250 p.).
The experiments were performed on non-linear male mice weighing 19-29 g. Pentylenetetrazole was administered subcutaneously in the cervical region of the back. […]
For MES-induced seizures experimental animals were exposed to electric stimulation through the corneal electrodes (50 Hz, 50 mA for mice during 0.2 s). The number of animals with the maximum tonic extension of the hind limbs, which occurs in almost 100% of the animals in the control group, was calculated. […]

SMILES: O=C(O)Cc1ccccc1Nc1c(Cl)cccc1Cl [Diclofenac-sodium, diclofenac-sodium, reference compound]
- Inhibition of edema in 2 hours (%) [1]: 43.0 ± 7.0 %
- Inhibition of edema in 4 hours (%) [1]: 57.10 ± 8.3 %
- I phase, % effect (decrease in the time of licking of the paw) (formalin test in mice; phase 0-5 min): 51.00 ± 11.64 %
- II phase, effect (decrease in the time of licking of the paw) (formalin test in mice; phase 15-40 min): 53.60 ± 11.02

SMILES: NCC1(CC(=O)O)CCCCC1 [Gabapentin, gabapentin]
- Anticonvulsive activity (ED50), Pentylenetetrazole [2]: 32 (50-200) mg/kg
- Anticonvulsive activity (ED50), MES (MES-induced seizures): 19 (16-24) mg/kg

SMILES: O=C(c1ccccc1)c1ccc2n1CCC2C(=O)O (stereo not drawn) [Ketorolac, ketorolac]
- Degree of pain sensitivity threshold increase in relation to the initial level ([3]; 0.5 mg/kg orally, 1 hour): +7.5%
- Degree of pain sensitivity threshold increase in relation to the initial level ([3]; 0.5 mg/kg orally, 2 hours): +14.6%
- Degree of pain sensitivity threshold increase in relation to the initial level ([3]; 0.5 mg/kg orally, 4 hours): +28.6%
- Degree of pain sensitivity threshold increase in relation to the initial level ([3]; 0.5 mg/kg orally, 6 hours): +12.1%
- Degree of pain sensitivity threshold increase in relation to the initial level ([3]; 3 mg/kg orally, 1 hour): +43.4%
- Degree of pain sensitivity threshold increase in relation to the initial level ([3]; 3 mg/kg orally, 2 hours): +75.7%
- Degree of pain sensitivity threshold increase in relation to the initial level ([3]; 3 mg/kg orally, 4 hours): +65.7%
- Degree of pain sensitivity threshold increase in relation to the initial level ([3]; 3 mg/kg orally, 6 hours): +28.1%
- ED50 (analgesic effect) [4]: 3 mg/kg
- Changes in the threshold of pain perception, regarding healthy limb ([5]; 0.5 mg/kg group): −47.3 ± 3.9%
- Threshold of pain sensitivity, damaged limb ([5]; 0.5 mg/kg group): 287.9 ± 19.85 g/mm^2
- Threshold of pain sensitivity, healthy limb ([5]; 0.5 mg/kg group): 550.0 ± 19.0 g/mm^2
- Pain perception threshold changes, regarding pathology before administration of compounds ([5]; 0.5 mg/kg intragastrally once): +24.6 ± 5.2%
- Pain perception threshold changes, regarding pathology before administration of compounds ([5]; 0.5 mg/kg intragastrally once, listed as ketorolac): +24.6%
- Threshold of pain sensitivity 2 hours after compounds administration ([5]; 0.5 mg/kg intragastrally once): 355.0 ± 19.5 g/mm^2
- Changes in the threshold of pain perception, regarding healthy limb ([5]; 3 mg/kg group): −45.7 ± 3.5%
- Threshold of pain sensitivity, damaged limb ([5]; 3 mg/kg group): 296.4 ± 19.6 g/mm^2
- Threshold of pain sensitivity, healthy limb ([5]; 3 mg/kg group): 547.1 ± 15.1 g/mm^2
- Pain perception threshold changes, regarding pathology before administration of compounds ([5]; 3 mg/kg intragastrally once): +70.1 ± 6.2%
- Pain perception threshold changes, regarding pathology before administration of compounds ([5]; 3 mg/kg intragastrally once, listed as ketorolac): +70.1%
- Threshold of pain sensitivity 2 hours after compounds administration ([5]; 3 mg/kg intragastrally once): 501.4 ± 34.9 g/mm^2

SMILES: CC(C)C[C@H](CN)CC(=O)O [Pregabalin, pregabalin]
- Anticonvulsive activity (ED50), Pentylenetetrazole [2]: 31 (16-62) mg/kg
- Anticonvulsive activity (ED50), MES (MES-induced seizures): 73 (57-93) mg/kg

SMILES: C1CCc2nnnn2CC1 [pentylenetetrazole, reference compound]
- ED95 of pentylenetetrazole (seizure agent) [6]: 120 mg/kg
